Literature values in patent publication US20240398820A1, “METHODS FOR TREATMENT OF PULMONARY HYPERTENSION” (Respira Therapeutics, Inc., priority 2023, published 2024).

How the values were obtained:
[1] = inhaled, following pulmonary administration
[2] = human patients with PAH, 5 mg orally twice per day
[3] = in vivo

CCCc1nc(C)c2c(=O)nc(-c3cc(S(=O)(=O)N4CCN(CC)CC4)ccc3OCC)[nH]n12 [Vardenafil, 1-[[3-(1,4-dihydro-5-methyl-4-oxo-7-propylimidazo[5,1-f][1,2,4]triazin-2-yl)-4-ethoxyphenyl]sulfonyl]-4-ethyl-piperazine]
tmax [1]: ≤ 2 min | safety and efficacy in PAH [2]: safe and effective | dissociation rate: slow dissociation rate | clearance [3]: rapid clearance
